Usually IC50 stands for the concentration at which inhibition is half-maximal. For orientation: Ki means the dissociation constant of the complex between target and ligand, obtained from inhibition or displacement.

The values below come from paper PMC7504258, “New Hybrids of 4-Amino-2,3-polymethylene-quinoline and p-Tolylsulfonamide as Dual Inhibitors of Acetyl- and Butyrylcholinesterase and Potential Multifunctional Agents for Alzheimer’s Disease Treatment” (Molecules, 2020).

Structures are written as SMILES.

The test system of assay [1] is Porcine liver CES. Description: CES inhibition (4-nitrophenyl acetate hydrolysis). The assay is classed as biochemical. Conditions: inhibition at compound concentration 20 µM; mean ± SEM, n = 3. As for the experimental part:
(§1) All experiments were carried out in accordance with the standard protocols approved by IPAC RAS. Human erythrocyte AChE, equine serum BChE, porcine liver CES, acetylthiocholine iodide (ATCh), butyrylthiocholine iodide (BTCh), 5,5′-dithio-bis-(2-nitrobenzoic acid) (DTNB), and 4-nitrophenol acetate (4-NPA) were purchased from Sigma-Aldrich (Saint Louis, MO, USA).
Final enzyme and substrate (4-nitrophenyl acetate) concentrations were 0.02 unit/mL and 1 mM, respectively. Assays were carried out with a blank containing all constituents except porcine CES to assess non-enzymatic hydrolysis.
(§2) An initial evaluation of inhibitory activity of compounds was carried out by determination of the AChE, BChE and CES inhibition at a compound concentration of 20 µM. For this, a sample of the corresponding enzyme was incubated with the test compound for 5 min at 25 °C for temperature equilibration; then the enzyme residual activity was determined. Each experiment was performed in triplicate.
(§3) The test compounds were added to the assay solution and incubated with the enzyme at 25 °C for 5 min (for temperature equilibration) followed by the addition of substrate. A parallel control was made for the assay solution with no inhibitor.
(§4) Measurements were performed in the FLUOStar OPTIMA microplate spectrophotometer (BMG Labtech, Ortenberg, Germany). Each experiment for the IC50 assay was performed in triplicate. The results were expressed as the mean ± SEM. The reaction rates in the presence and absence of inhibitor were compared, and the percent residual enzyme activity due to the presence of test compounds was calculated. IC50 values were determined graphically from inhibition curves (log inhibitor concentration vs. percent residual enzyme activity) using Origin 6.1 software (OriginLab, Northampton, MA, USA).

Assay [2] has as its target T1, Human erythrocyte AChE (Homo sapiens, UniProt P22303).
T1 construct: AChE from human erythrocytes was used; purchased Sigma-Aldrich; host or cells: human erythrocytes
Description: biochemical. Conditions: mean ± SEM, n = 3; pH 7.5, 25 °C. As for the experimental part:
as §1
(§5) AChE and BChE activities were measured by the colorimetric method of Ellman et al.. The assay solution consisted of 0.1 M K/Na phosphate buffer pH 7.5, 25 °C, 0.33 mM DTNB, 0.02 unit/mL AChE or BChE, and 1 mM substrate (ATCh or BTCh, respectively). Reagent blanks consisted of reaction mixtures without substrates.
as §2, §3, §4

For assay [3], the target named is T2, Equine serum BChE (Equus caballus, UniProt P81908).
T2 construct: two enzymes of non-human origin: equine serum BChE and porcine liver CES; purchased Sigma-Aldrich; host or cells: equine serum
Description: biochemical. Conditions: for IC50: mean ± SEM, n = 3, pH 7.5, 25 °C; for Selectivity, S = IC50 AChE/IC50 BChE: ratio IC50 AChE/IC50 BChE. The procedure: as §1, §5, §2, §3, §4

Assay [4] concerns the target EeAChE PAS (Electrophorus electricus, UniProt O42275). Briefly: Propidium iodide displacement from the PAS of EeAChE (fluorescence). The assay is classed as binding. The note with it: compound concentration 20 µM; mean ± SEM, n = 3. As for the experimental part:
EeAChE was used owing to its high degree of purification, high activity, and lower cost than human AChE (hAChE).
To determine the degree of displacement (% displacement) of propidium from the PAS of AChE, EeAChE (final concentration, 7 μM) was incubated with the test compound at a concentration of 20 μM in 1 mM Tris-HCl buffer pH 8.0, 25 °C, for 15 min. Then, propidium iodide solution (final concentration, 8 μM) was added, the samples were incubated for 15 min and the fluorescence spectrum (530 nm (excitation) and 600 nm (emission)) was taken. […] The blank contained propidium iodide of the same concentration in 1 mM Tris-HCl buffer pH 8.0. The measurements were carried out in triplicate on the FLUOStar Optima microplate reader (BMG Labtech), and the results were calculated by the following formula:% Displacement = 100 − (IFAChE+ Propidium + inhibitor/IFAChE + Propidium) × 100(1) where IFAChE + Propidium is the fluorescence intensity of the propidium associated with AChE in the absence of the test compound (taken as 100%), and IFAChE + Propidium + inhibitor is the fluorescence intensity of the propidium associated with AChE in the presence of the test compound.

Assay [5] concerns the target T3, BChE (Equus caballus, UniProt P81908).
T3 construct: two enzymes of non-human origin: equine serum BChE and porcine liver CES; purchased Sigma-Aldrich; host or cells: equine serum
Briefly: Kinetic study of BChE inhibition, steady-state inhibition constants. The assay is classed as biochemical. As for the experimental part:
(§6) • Kinetic Study of AChE and BChE Inhibition. Determination of Steady-State Inhibition Constants
(§7) Mechanisms of AChE and BChE inhibition were assessed via a thorough analysis of enzyme kinetics. Residual activity was measured following 5 min incubation at 25 °C (for temperature equilibration) with three increasing concentrations of inhibitor and six decreasing substrate concentrations. Substrate was added immediately after the 5 min incubation with inhibitor and the rates of absorption were monitored at 412 nm using the FLUOStar OPTIMA (BMG Labtech) microplate spectrophotometer. Inhibition constants Ki (competitive component) and αKi (noncompetitive component) were determined by linear regression of 1/V versus 1/[S] double-reciprocal (Lineweaver-Burk) plots using Origin 6.1 software. Data were expressed as mean ± SEM (n = 3 experiments).

Assay [6] concerns the target T4, AChE (Homo sapiens, UniProt P22303).
T4 construct: AChE from human erythrocytes was used; purchased Sigma-Aldrich; host or cells: human erythrocytes
Briefly: Kinetic study of AChE inhibition, steady-state inhibition constants. The format is biochemical. Conditions: for Type of AChE inhibition: changes in both Km and Vmax. The procedure: as §6, §7

Assay [7] relates to AChE-induced Aβ aggregation. The note with it: at 100 µM; cited from earlier work.

T2 sequence (P81908 whole entry): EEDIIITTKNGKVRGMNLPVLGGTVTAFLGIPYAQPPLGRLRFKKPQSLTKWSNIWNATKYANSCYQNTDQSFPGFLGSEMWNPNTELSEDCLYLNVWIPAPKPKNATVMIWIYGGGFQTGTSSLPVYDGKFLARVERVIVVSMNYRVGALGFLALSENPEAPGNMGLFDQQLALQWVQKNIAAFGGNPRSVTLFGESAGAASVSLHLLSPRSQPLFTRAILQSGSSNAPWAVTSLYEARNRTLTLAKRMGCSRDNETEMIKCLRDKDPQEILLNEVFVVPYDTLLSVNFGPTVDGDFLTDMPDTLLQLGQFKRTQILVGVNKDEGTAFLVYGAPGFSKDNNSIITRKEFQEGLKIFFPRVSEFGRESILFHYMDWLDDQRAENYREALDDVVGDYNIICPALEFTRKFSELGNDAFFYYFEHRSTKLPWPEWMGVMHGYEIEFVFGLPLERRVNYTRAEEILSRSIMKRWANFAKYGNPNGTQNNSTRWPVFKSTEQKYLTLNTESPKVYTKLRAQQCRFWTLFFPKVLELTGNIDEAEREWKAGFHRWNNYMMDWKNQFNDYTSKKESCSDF
T3 sequence (P81908 whole entry): as above
T4 sequence (P22303 other isoform, or with tags, fused parts or gaps): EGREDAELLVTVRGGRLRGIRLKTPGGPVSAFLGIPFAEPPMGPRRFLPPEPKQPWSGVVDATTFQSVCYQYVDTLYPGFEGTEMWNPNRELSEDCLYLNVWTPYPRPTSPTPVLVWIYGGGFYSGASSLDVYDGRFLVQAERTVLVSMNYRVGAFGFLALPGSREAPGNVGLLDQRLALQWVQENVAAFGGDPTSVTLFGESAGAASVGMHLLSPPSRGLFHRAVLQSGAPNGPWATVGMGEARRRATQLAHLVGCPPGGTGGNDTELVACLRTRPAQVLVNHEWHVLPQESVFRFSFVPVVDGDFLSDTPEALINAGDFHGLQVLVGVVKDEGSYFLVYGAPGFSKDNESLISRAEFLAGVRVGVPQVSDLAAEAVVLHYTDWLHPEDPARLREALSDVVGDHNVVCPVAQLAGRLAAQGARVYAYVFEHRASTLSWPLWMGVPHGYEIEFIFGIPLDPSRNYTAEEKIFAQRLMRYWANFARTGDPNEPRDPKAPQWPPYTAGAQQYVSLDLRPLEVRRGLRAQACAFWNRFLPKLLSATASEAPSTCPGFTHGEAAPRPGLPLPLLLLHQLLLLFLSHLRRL
T1 sequence (P22303 other isoform, or with tags, fused parts or gaps): as above
Chain of EeAChE PAS (O42275 24-633): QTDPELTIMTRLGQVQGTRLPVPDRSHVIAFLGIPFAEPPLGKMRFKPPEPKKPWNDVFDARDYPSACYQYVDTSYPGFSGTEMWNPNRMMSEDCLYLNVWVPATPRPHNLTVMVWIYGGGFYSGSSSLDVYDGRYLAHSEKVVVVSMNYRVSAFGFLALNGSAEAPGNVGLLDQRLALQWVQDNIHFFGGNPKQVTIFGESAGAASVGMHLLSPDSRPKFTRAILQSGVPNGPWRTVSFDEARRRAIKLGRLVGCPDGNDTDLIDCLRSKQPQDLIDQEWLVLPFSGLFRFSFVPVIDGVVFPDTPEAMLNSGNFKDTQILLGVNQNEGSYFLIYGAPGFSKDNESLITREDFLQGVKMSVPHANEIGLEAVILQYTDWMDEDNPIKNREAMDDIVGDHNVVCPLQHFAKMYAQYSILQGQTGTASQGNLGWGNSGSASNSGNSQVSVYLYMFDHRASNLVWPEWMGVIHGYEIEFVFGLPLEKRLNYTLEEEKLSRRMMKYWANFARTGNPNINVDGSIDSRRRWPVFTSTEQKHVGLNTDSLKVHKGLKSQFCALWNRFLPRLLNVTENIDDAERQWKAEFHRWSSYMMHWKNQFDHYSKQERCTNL

As for `Cc1ccc(S(=O)(=O)NCCNc2c3c(nc4ccccc24)CCC3)cc1` [7a, N-(2-(2,3-Dihydro-1H-cyclopenta[b]quinolin-9-ylamino)-ethyl)-4-methyl-benzenesulfonamide], the “Porcine Liver CES, (%)” value in assay [1] was 11.9 ± 1.5%. Also, the IC50 in assay [2] is 9030 ± 640 nM. Further, in assay [3], the IC50 amounted to 924 ± 31 nM and the “Selectivity, S = IC50 AChE/IC50 BChE” value is 9.8. For the same molecule, the “Displacement of Propidium from the EeAChE PAS” value (shortened to “Displacement of Propidium”) in assay [4] was 9.2 ± 1.0%.
The like results for `Cc1ccc(S(=O)(=O)NCCCNc2c3c(nc4ccccc24)CCC3)cc1` [7b, N-(3-(2,3-Dihydro-1H-cyclopenta[b]quinolin-9-ylamino)-propyl)-4-methyl-benzenesulfonamide] were, in that order, 8.1 ± 0.6%, 7760 ± 610 nM, 327 ± 4 nM, 23.7 and 12.3 ± 1.1%.
Regarding `Cc1ccc(S(=O)(=O)NCCCCNc2c3c(nc4ccccc24)CCC3)cc1` [7c, N-(4-(2,3-Dihydro-1H-cyclopenta[b]quinolin-9-ylamino)-butyl)-4-methyl-benzenesulfonamide], in assay [1], the “Porcine Liver CES, (%)” value is 9.0 ± 0.1%. For the same molecule, in assay [2], the IC50 amounted to 2080 ± 80 nM. Besides, in assay [3], the IC50 came out at 578 ± 25 nM and the “Selectivity, S = IC50 AChE/IC50 BChE” value was determined as 3.6. Besides, in assay [4], the “Displacement of Propidium” value is 14.9 ± 1.2%.
On the same counts, the results for `Cc1ccc(S(=O)(=O)NCCCCCNc2c3c(nc4ccccc24)CCC3)cc1` [7d, N-(5-(2,3-Dihydro-1H-cyclopenta[b]quinolin-9-ylamino)-pentyl)-4-methyl-benzenesulfonamide] are 29.6 ± 1.2%, 1970 ± 50 nM, 459 ± 44 nM, 4.3 and 15.1 ± 1.4%.
With `Cc1ccc(S(=O)(=O)NCCCCCCNc2c3c(nc4ccccc24)CCC3)cc1` [7e, N-(6-(2,3-Dihydro-1H-cyclopenta[b]quinolin-9-ylamino)-hexyl)-4-methyl-benzenesulfonamide], the “Porcine Liver CES, (%)” value in assay [1] is listed as 18.6 ± 0.2%. In addition, the IC50 turned out to be 4000 ± 90 nM in assay [2] and 209 ± 8 nM in assay [3]. The “Displacement of Propidium” value in assay [4] turned out to be 15.9 ± 1.3%.
With `Cc1ccc(S(=O)(=O)NCCCNc2c3c(nc4ccccc24)CCCC3)cc1` [7f, 4-Methyl-N-(3-(1,2,3,4-tetrahydro-acridin-9-ylamino)-propyl)-benzenesulfonamide], the “Porcine Liver CES, (%)” value in assay [1] is 2.0 ± 0.8%. Further, inhibition in assay [2] was half-maximal at 1880 ± 30 nM (IC50). Moreover, in assay [3], half-maximal inhibition (IC50) required 110 ± 5 nM and the “Selectivity, S = IC50 AChE/IC50 BChE” value is given as 17.1. Moreover, the “Displacement of Propidium” value in assay [4] is reported as 9.8 ± 0.8%.
In the case of `Cc1ccc(S(=O)(=O)NCCCCNc2c3c(nc4ccccc24)CCCC3)cc1` [7g, 4-Methyl-N-(4-(1,2,3,4-tetrahydro-acridin-9-ylamino)-butyl)-benzenesulfonamide], the “Porcine Liver CES, (%)” value in assay [1] turned out to be 17.1 ± 1.4%. The “αKi (noncompetitive component), BChE” value in assay [5] (Lineweaver-Burk analysis) came to 0.117 ± 0.002 µM. Besides, the Ki was 23.5 ± 0.2 nM in assay [5] (Lineweaver-Burk analysis, read-out: Ki (competitive component), BChE) and 390 ± 8 nM in assay [6] (Lineweaver-Burk analysis, read-out: Ki (competitive component), AChE). In addition, the “Type of BChE inhibition” value in assay [5] (changes in both Km and Vmax) was “mixed type of inhibition”. Moreover, the IC50 in assay [2] is 668 ± 170 nM; in assay [3] it was 61.7 ± 0.3 nM. Moreover, in assay [3], the “Selectivity, S = IC50 AChE/IC50 BChE” value came to 10.8. In addition, in assay [4], the “Displacement of Propidium” value turned out to be 14.8 ± 1.3%. Moreover, the “αKi (noncompetitive component), AChE” value in assay [6] (Lineweaver-Burk analysis) was found to be 1.09 ± 0.02 µM. Besides, in assay [6], the “Type of AChE inhibition” value was “mixed type of inhibition”.
As to `Cc1ccc(S(=O)(=O)NCCCCCNc2c3c(nc4ccccc24)CCCC3)cc1` [7h, 4-Methyl-N-(5-(1,2,3,4-tetrahydro-acridin-9-ylamino)-pentyl)-benzenesulfonamide], the “Porcine Liver CES, (%)” value in assay [1] was 6.7 ± 0.8%. 131 ± 10 nM corresponded to half-maximal inhibition in assay [2] (IC50). In addition, in assay [3], the IC50 came to 68 ± 1.4 nM and the “Selectivity, S = IC50 AChE/IC50 BChE” value is recorded as 1.9. Moreover, the “Displacement of Propidium” value in assay [4] amounted to 17.5 ± 1.5%. Further, the “Type of AChE inhibition” value in assay [6] is “mixed-type AChE inhibitor”.
Consider `Cc1ccc(S(=O)(=O)NCCCNc2c3c(nc4ccccc24)CCCCC3)cc1` [7i, 4-Methyl-N-(3-(7,8,9,10-tetrahydro-6H-cyclohepta[b]quinolin-11-ylamino)-propyl)-benzenesulfonamide], for which the “Porcine Liver CES, (%)” value in assay [1] was 1.9 ± 0.9%. In assay [2], this molecule returned an IC50 of 2760 ± 40 nM. Besides, in assay [3], inhibition was half-maximal at 43.1 ± 1.1 nM (IC50) and the “Selectivity, S = IC50 AChE/IC50 BChE” value amounted to 64.0. Also, the “Displacement of Propidium” value in assay [4] is recorded as 13.9 ± 1.3%.
The like results for `Cc1ccc(S(=O)(=O)NCCCCNc2c3c(nc4ccccc24)CCCCC3)cc1` [7j, 4-Methyl-N-(4-(7,8,9,10-tetrahydro-6H-cyclohepta[b]quinolin-11-ylamino)-butyl)-benzenesulfonamide] were, in that order, 10.3 ± 0.8%, 1160 ± 30 nM, 78.8 ± 6 nM, 14.7 and 16.1 ± 1.4%.
On the same counts, the results for `Cc1ccc(S(=O)(=O)NCCCNc2c3c(nc4ccccc24)CCCCCC3)cc1` [7k, N-(3-(6,7,8,9,10,11-Hexahydro-cycloocta[b]quinolin-12-ylamino)-propyl)-4-methyl-benzenesulfonamide] are 5.2 ± 1.5%, 11100 ± 200 nM, 461 ± 7 nM, 24.1 and 15.9 ± 1.7%.
As for `O=[N+]([O-])c1ccc(OP(=O)(O)Oc2ccc([N+](=O)[O-])cc2)cc1` [BNPP, bis-4-nitrophenyl phosphate, reference compound], the “Porcine Liver CES, (%)” value in assay [1] came out at 1.80 ± 0.11%.
As for `CC[N+](C)(CC)CCC[n+]1c(-c2ccccc2)c2cc(N)ccc2c2ccc(N)cc21` [Propidium], in assay [7], the “decrease in AChE-induced Aβ aggregation” value is on record as 82%.
